Results as given in patent US10662169B2, “Catechol derivative and pharmaceutical composition comprising the same” (AUTOPHAGYSCIENCES INC., priority 2015, dated 2020).

Legend:
[1] = test system: acute liver injury induced by carbon tetrachloride; test: Model of acute liver injury induced by carbon tetrachloride; type: in vivo, C57BL/6 mice; details: 50 mg/kg orally three times every 12 hours, then CCl4 5 mL/kg i.p.; autopsy 24 hours later; FIG. 4
Method: Attempts were made to confirm the inhibitory effect of autophagy activator on liver injury in an animal model of induced liver fibrosis due to acute liver injury. In order to confirm the effect of inhibiting acute liver injury, carbon tetrachloride (CCl4) was administered to C57BL/6 mice to induce acute liver injury, and then the compound according to the present invention was administered. It was then confirmed whether liver injuries were inhibited. Five-week-old female C57BL/6 mice were introduced and acclimated for one week, and then divided into six groups respectively; a normal control group, a group to which carbon tetrachloride was administered, and groups to which the compounds according to the present invention (Examples 1, 2, 5, and 7) were administered. Each of the compounds according to the present invention was dissolved in corn oil and administered orally three times at a dose of 50 mg/kg (body weight) every 12 hours. 30 Minutes after final oral administration, carbon tetrachloride was intraperitoneally administered at a dose of 5 mL/kg (body weight) and then autopsied 24 hours later top remove a sample of liver tissue under autopsy and fix it, thereby preparing a tissue specimen. After preparation of tissue specimen slides, H & E staining was performed and liver injuries were confirmed with a microscope.

[2] = test system: liver fibrosis induced by thioacetamide; test: Model of liver fibrosis induced by thioacetamide (TAA); type: in vivo, C57BL/6 mice; details: TAA 200 mg/kg i.p. three times a week for 6 weeks; compound 50 mg/kg orally once a day for 8 days; FIG. 7
Method: In order to confirm the effect of inhibiting liver fibrosis caused by chronic liver injury, thioacetamide (TAA) was administered to C57BL/6 mice to induce chronic liver injury, thereby inducing liver fibrosis, and then the compounds according to the present invention were administered. It was then confirmed whether chronic liver injuries were inhibited. Five-week-old female C57BL/6 mice were introduced and acclimated for one week, and then divided into six groups respectively; a normal control group, a group to which thioacetamide was administered, and groups to which the compounds according to the present invention (Examples 2, 5 and 7) were administered. Thioacetamide was dissolved in phosphate-buffered physiological saline and administered intraperitoneally at a dose of 200 mg/kg (body weight) three times a week, for a total of 6 weeks. Three compounds according to the present invention was dissolved in corn oil […] and administered orally at a dose of 50 mg/kg (body weight) once a day for a total of 8 days. Twenty-four hours after the final oral administration, an autopsy was performed to remove a sample of liver tissue and fix it, thus preparing a tissue specimen. After preparation of tissue specimen slides. H & E staining was performed, and liver tissue injury as well as inflammatory cell infiltration in liver tissue were confirmed by microscopy. […]

[3] = test system: liver fibrosis induced by bile duct ligation; test: Model of liver fibrosis induced by bile duct ligation (BDL); type: in vivo, Sprague Dawley (SD) rats; details: BDL rats; 12.5, 25 and 50 mg/kg orally once a day for 14 days; FIG. 13
Method: In order to confirm the effect of inhibiting liver fibrosis caused by chronic liver injury, bile duct ligation (BDL) was performed in Sprague Dawley (SD) rats to induce chronic liver injury, thereby inducing liver fibrosis, and then the compounds according to the present invention were administered. It was then confirmed whether chronic liver injuries were inhibited.
Seven-week-old female SD rats were introduced and acclimated for one week, and then divided into five groups respectively; a control group, a bile duct ligation surgery group, and groups to which the compound according to the present invention (Example 15) was administered at three doses (12.5, 25 and 50 mg/kg body weight). In the control group, the bile duct was not exposed or ligated after laparotomy, and the other groups performed bile duct ligation surgery. One week after bile duct ligation, the compound according to the present invention (Example 1) was dissolved in corn oil and administered orally for each dose once a day for a total of 14 days. […] In addition, a part of the removed liver (10 mg) was decomposed to perform a quantitative experiment of hydroxyproline which is a major component of collagen, and the amount of collagen deposited was quantified, thereby confirming the effects of the compound according to the present invention.

[4] = test system: liver fibrosis induced by carbon tetrachloride; test: Model of liver fibrosis induced by carbon tetrachloride (chronic); type: in vivo, C57BL/6 mice; details: for liver fibrosis, Masson's Trichrome staining: CCl4 0.8 ml/kg i.p., FIG. 10
Method: In order to confirm the effect of inhibiting liver fibrosis caused by chronic liver injury, carbon tetrachloride was administered to C57BL/6 mice to induce chronic liver injury, thereby inducing liver fibrosis, and then the compounds according to the present invention were administered. It was then confirmed whether chronic liver injuries were inhibited. Five-week-old female C57BL/6 mice were introduced and acclimated for one week, and then divided into six groups respectively; a normal control group, a group to which carbon tetrachloride was administered, and groups to which the compounds according to the present invention (Examples 1 and 5) were administered. Carbon tetrachloride was dissolved in corn oil and administered intraperitoneally at a dose of 0.8 ml/kg (body weight) twice a day, for a total of 8 days. Twenty-four hours after the final oral administration, an autopsy was performed to remove a sample of liver tissue and fix it, thus preparing a tissue specimen. After preparation of tissue specimen slides, H & E staining was performed, and liver tissue injury as well as inflammatory cell infiltration in liver tissue were confirmed by microscopy. In addition, Masson's Trichrome staining was performed, and collagen deposition in the liver tissue was confirmed by microscope.

mTOR = mTOR enzyme activity: p-mTOR (Ser 2448) Western immunoblotting in hepatocyte ischemia-reperfusion model; type: cell-based, C57BL/6 mice; details: hepatocytes, FIG. 3
Method: Western immunoblotting was performed using the cell-disrupted liquid obtained in Experimental Example 1. The PVDF membrane obtained from electrophoresis and electroblotting was placed in a TBS-tween solution containing an antibody against mTOR or p-mTOR (Ser 2448) proteins (Cell Signaling), allowed to stand at 4° C. for 12 hours, and then labeled with a secondary antibody labeled with HRP (Horseradish Peroxidase, Sigma Co., Cat No. P0889). Then, bands were measured using ECL (Enhanced Chemiluminescence, Thermo Scientific, Cat No. 34080).
The measurement results are shown in FIG. 3. mTOR is known to be one of the major proteins regulating autophagy. mTOR serves to inhibit autophagy at a quiescent state, whereas phosphorylation at serine 2448-position inhibits the function of mTOR, resulting in activation of autophagy.

[5] = test system: LC3-II in primary hepatocytes; test: Autophagy activation: LC3-II Western immunoblotting in primary hepatocytes, ischemia-reperfusion model; type: cell-based, C57BL/6 mice; details: FIG. 1, FIG. 2
Method: Primary hepatocyte was isolated from male C57BL/6 mice by a collagenase perfusion method which is a known method (Gastroenterology 2011, 141, 2188). Survival rate of the isolated cells was measured by trypan blue exclusion method. Autophagy was induced by ischemia-reperfusion method (Gastroenterology 2011, 141, 2188).
Specifically, in order to induce ischemia, hepatocytes were incubated at 37° C. in Krebs-Ringer-HEPES (KRH0) buffer (pH 6.2) in an anaerobic chamber for 2 hours. The respective hepatocytes were treated with DMSO, the compound prepared in Examples described above, or Rapamycin as a control substance, and then KRH buffer solution at pH 7.4 was treated under aerobic conditions for 1 hour to induce reperfusion. […] The amount of protein was measured with bovine serum albumin as a protein standard using Bio-Rad Protein Assay Kit (Cat No. 500-0002). […] Then, bands were measured using ECL (Enhanced Chemiluminescence, Thermo Scientific, Cat No. 34080). […]
The amount of LC3-II increased by the compound treatment was quantified by measuring the band density, and then compared with the amount of LC3-II increased by the treatment of Rapamycin used as a control substance, and the comparison values are shown in Table 1.

| SMILES | liver injury, H & E staining [1] | liver fibrosis (collagen deposition), Masson's Trichrome staining [2] | collagen deposition, quantitative experiment of hydroxyproline in liver tissue [3] | liver fibrosis, Masson's Trichrome staining [4] | collagen deposition, Example 1 compared with Example 5 ([4]; CCl4 fibrosis model, Masson's Trichrome staining) | phosphorylation of mTOR at serine 2448 position (mTOR) | increase in LC3-II (autophagy induction), Western immunoblotting [5] |
| --- | --- | --- | --- | --- | --- | --- | --- |
| COc1ccc(-c2ccc(C(=O)Nc3ccccc3)s2)cc1OC [Example 7, 5-(3,4-dimethoxyphenyl)-N-phenylthiophene-2-carboxamide] | recovery effect of liver injury was relatively small |  |  |  |  |  |  |
| CC(C)NC(=O)c1ccc(-c2ccc3c(c2)OCO3)s1 [Example 2, 5-(benzo[d][1,3]dioxol-5-yl)-N-isopropylthiophene-2-carboxamide] | recovery effect of liver injury was relatively small | fibrosis was clearly alleviated |  |  |  |  |  |
| COc1ccc(-c2ccc(C(=O)NC(C)C)s2)cc1OC [Example 1, 5-(3,4-dimethoxyphenyl)-N-isopropylthiophene-2-carboxamide] | liver injury was clearly recovered |  | the smaller the collagen deposition | fibrosis was alleviated | collagen deposition was less | significantly inhibited | significant increase in autophagy induction |
| CC(C)CNC(=O)c1ccc(-c2ccc3c(c2)OCO3)s1 [Example 5, 5-(benzo[d][1,3]dioxol-5-yl)-N-isobutylthiophene-2-carboxamide] | liver injury was clearly recovered | fibrosis was clearly alleviated |  | fibrosis was alleviated |  |  | significant increase in autophagy induction |
